Assay results taken from patent US20080031866A1, “METHOD FOR MODULATING THE PHARMACOKINETICS AND METABOLISM OF A THERAPEUTIC AGENT” (priority 2006, published 2008).

Assays:
[1] = Intraduodenal dosing with and without β-glucuronidase, catheterized rat; assay type: in vivo; details: 10 mg/kg, rats N=6; for AUC / Cmax / concentration at 0 h / concentration at 0.25 h / concentration at 0.5 h / concentration at 1 h / concentration at 2 h / concentration at 3 h / concentration at 4 h / concentration at 5 h / concentration at 6 h: male, Sprague Dawley, rat, plasma; for AUC: read-out: AUC average ± standard deviation 0 to 6 hours; for Cmax: read-out: Cmax average ± standard deviation; for concentration at 0 h / concentration at 0.25 h / concentration at 0.5 h / concentration at 1 h / concentration at 2 h / concentration at 3 h / concentration at 4 h / concentration at 5 h / concentration at 6 h: other: intraduodenal
Procedure: (§1) A catheterized rat model was used in which the agent alone or agent and β-glucuronidase enzyme was administered intraduodenally or intracolonically. The intraduodenal and intracolonic dosing was intended to prevent the potential for loss of enzymatic activity when orally dosing the β-glucuronidase (e.g. by degradation in the stomach). […]
(§2) For the oral gavage dosing, Compound 1 was prepared in neat PEG-400. For the intraduodenal and intracolonic dosing solutions, Compound 1 was added to neat Tween 80, the mixture was sonicated for thirty minutes at 45° C. until Compound 1 was completely dissolved and then deionized (DI) water was added to form a solution consisting of 20% Tween 80 and 80% DI water by weight.
(§3) For the oral enzyme solutions, β-glucuronidase was added to the final formulation at a concentration of 57,600 units/ml.
(§4) For the intraduodenal and intracolonic dosing, male Sprague Dawley rats weighing 300-400 g were purchased from Charles River Labs. All rat experiments were conducted under approved animal protocols. The rats were catheterized at Charles River Labs and had one or more of the following chronic catheters for dosing and sampling: jugular/carotid, duodenal, and colonic. Rats were limited to only one GI catheter and one vascular catheter. For IV dosing, rats were purchased with jugular and carotid catheters for dosing in the jugular catheter and blood sampling through the carotid catheter. For intraduodenal/intracolonic dosing, rats had one of the GI catheters for dosing and a carotid catheter for blood sampling.
(§5) The surgeries were done two weeks prior to start of testing. Rats were fed 4 hours post dose administration. All rats were dosed without anesthesia and sacrificed at the end of the study.
(§6) A quantitative method for determining the amount of (6,7-dimethoxy-2,4-dihydro-indeno[1,2-c]pyrazol-3-yl)-(3-fluoro-phenyl)-amine Compound 1 and its major metabolites, glucuronide A (Cpd 1-GluA) and glucuronide B (Cpd 1-GluB) (see Scheme A) in rat plasma was developed using phenacetin as an internal standard. [drawing 1]
(§7) The two glucuronide conjugates were prepared and purified to permit accurate quantification of the levels of intact parent Compound 1 versus Cpd 1-GluA and Cpd 1-GluB. Each standard curve for Compound 1, Cpd 1-GluA, and Cpd 1-GluB generated from rat plasma included ten concentration levels. […] The quantitative procedure for each sample included: sample preparation, HPLC separation and mass spectrometry detection.
(§8) The rat plasma was prepared using protein precipitation techniques. Reference standards and quality control samples in rat plasma for Compound 1 were transferred to a 96 deep-well plate. The precipitation solution contained 100 ng/ml of internal standard in acetonitrile. 300 μl of precipitation solution were added to 100 μl of each standard, quality control and plasma sample. Samples were vortexed for 10 mins, then centrifuged at 4500 RPM for 10 mins. 10 μl of each sample were injected for LC/MS/MS analysis.
(§9) The HPLC column chosen for the bioanalysis was purchased from Thermo Electron (Hypersil BetaBasic C18, 5 cm×2.1 mm). The eluting solvents were composed of Solvent A: 0.1% formic acid in H2O and Solvent B: 0.1% formic acid in acetonitrile. A step gradient was used and flow rate was 300 μl/min. The total run time was 3.2 mins. Solvent B was increased from 35% at 0 min to 75% at 2.1 mins and decreased back to 35% at 2.2 mins. The retention times for Compound 1, phenacetin, Cpd 1-GluA and Cpd 1-GluB were 1.1 min, 0.9 min, 1.3 min, and 1.6 min, respectively.
(§10) API3000 with a Turbo Ionspray interface from Applied Biosystems was used for the detection of Compound 1, the internal standard and major metabolites. Electrospray ionization was performed in the positive ion mode heated nebulizer with a temperature of 300° C. LC/MS/MS chromatograms were acquired in MRM (multiple reaction mode). […]

[2] = Intracolonic dosing with and without β-glucuronidase, catheterized rat; assay type: in vivo; details: for AUC / Cmax / concentration at 0 h / concentration at 0.25 h / concentration at 0.5 h / concentration at 1 h / concentration at 2 h / concentration at 3 h / concentration at 4 h / concentration at 5 h / concentration at 6 h: male, Sprague Dawley, rat, plasma; for AUC / Cmax / concentration at 0 h / concentration at 0.25 h / concentration at 0.5 h / concentration at 1 h / concentration at 2 h / concentration at 3 h / concentration at 4 h / concentration at 5 h / concentration at 6 h / AUC average ± standard deviation 0 to 6 hours: 10 mg/kg, rats N=6; for AUC: read-out: AUC average ± standard deviation 0 to 6 hours; for Cmax: read-out: Cmax average ± standard deviation; for concentration at 0 h / concentration at 0.25 h / concentration at 0.5 h / concentration at 1 h / concentration at 2 h / concentration at 3 h / concentration at 4 h / concentration at 5 h / concentration at 6 h: other: intracolonic
Procedure: as §1, §2, §3, §4, §5, §6, §7, §8, §9, §10

[3] = Compound 1 10 mg/kg intraduodenal with β-glucuronidase
[4] = Compound 1 10 mg/kg intraduodenal without enzyme
[5] = Compound 1 10 mg/kg intracolonic with β-glucuronidase
[6] = Compound 1 10 mg/kg intracolonic without enzyme

Which AUC [1, 3] does the source give for COc1cc2c(cc1OC)-c1n[nH]c(N(c3cccc(F)c3)[C@H]3O[C@@H](C(=O)O)[C@H](O)[C@@H](O)[C@@H]3O)c1C2 [Cpd 1-GluA] here?
Its AUC is 8940 ± 2140 ng·h/mL.

What about the Cmax [1, 3] of the same molecule?
Its Cmax is 6450 ng/mL.

And the AUC [1, 4]?
The AUC was 1220 ± 371 ng·h/mL.

And the Cmax [1, 4]?
The Cmax was 717 ± 171 ng/mL.

And the concentration at 0 h [1, 3]?
Its concentration at 0 h is 0 ng/mL.

And the concentration at 0.25 h [1, 3]?
Its concentration at 0.25 h is 6450 ng/mL.

And the concentration at 0.5 h [1, 3]?
The concentration at 0.5 h was 4820 ng/mL.

And the concentration at 1 h [1, 3]?
Its concentration at 1 h is 3860 ng/mL.

And the concentration at 2 h [1, 3]?
Its concentration at 2 h is 812 ± 426 ng/mL.

And the concentration at 3 h [1, 3]?
Its concentration at 3 h is 462 ± 208 ng/mL.

And the concentration at 4 h [1, 3]?
The concentration at 4 h was 480 ± 107 ng/mL.

What about the concentration at 5 h [1, 3] of the same molecule?
The concentration at 5 h was 420 ± 74.1 ng/mL.

And the concentration at 6 h [1, 3]?
The concentration at 6 h was 462 ± 113 ng/mL.

What about the concentration at 0 h [1, 4] of the same molecule?
The concentration at 0 h was 0 ng/mL.

What about the concentration at 0.25 h [1, 4] of the same molecule?
The concentration at 0.25 h was 666 ± 198 ng/mL.

What about the concentration at 0.5 h [1, 4] of the same molecule?
The concentration at 0.5 h was 687 ± 178 ng/mL.

What about the concentration at 1 h [1, 4] of the same molecule?
Its concentration at 1 h is 463 ± 164 ng/mL.

What about the concentration at 2 h [1, 4] of the same molecule?
Its concentration at 2 h is 118 ± 36.3 ng/mL.

And the concentration at 3 h [1, 4]?
Its concentration at 3 h is 66.6 ± 42 ng/mL.

And the concentration at 4 h [1, 4]?
The concentration at 4 h was 88.2 ± 53.9 ng/mL.

What about the concentration at 5 h [1, 4] of the same molecule?
Its concentration at 5 h is 83.1 ± 23.2 ng/mL.

What about the concentration at 6 h [1, 4] of the same molecule?
Its concentration at 6 h is 90.2 ± 28.1 ng/mL.

What about the “AUC average ± standard deviation 0 to 6 hours” value [1, 3] of the same molecule?
Its value is 8,723.2 ± 2,132.6 ng · hr/ml.

And the “AUC average ± standard deviation 0 to 6 hours” value [1, 4]?
Its value is 1,172.7 ± 361.2 ng · hr/ml.

What about the AUC [2, 5] of the same molecule?
The AUC was 1770 ng·h/mL.

And the Cmax [2, 5]?
Its Cmax is 755 ± 509 ng/mL.

What about the AUC [2, 6] of the same molecule?
Its AUC is 5060 ng·h/mL.

And the Cmax [2, 6]?
Its Cmax is 1550 ± 1050 ng/mL.

What about the concentration at 0 h [2, 5] of the same molecule?
Its concentration at 0 h is 0 ng/mL.

What about the concentration at 0.25 h [2, 5] of the same molecule?
The concentration at 0.25 h was 6450 ng/mL.

What about the concentration at 0.5 h [2, 5] of the same molecule?
Its concentration at 0.5 h is 4820 ng/mL.

And the concentration at 1 h [2, 5]?
Its concentration at 1 h is 3860 ng/mL.

And the concentration at 2 h [2, 5]?
The concentration at 2 h was 812 ± 426 ng/mL.

What about the concentration at 3 h [2, 5] of the same molecule?
Its concentration at 3 h is 462 ± 208 ng/mL.

And the concentration at 4 h [2, 5]?
The concentration at 4 h was 480 ± 107 ng/mL.

And the concentration at 5 h [2, 5]?
The concentration at 5 h was 420 ± 74.1 ng/mL.

What about the concentration at 6 h [2, 5] of the same molecule?
Its concentration at 6 h is 462 ± 113 ng/mL.

And the concentration at 0 h [2, 6]?
The concentration at 0 h was 0 ng/mL.

What about the concentration at 0.25 h [2, 6] of the same molecule?
Its concentration at 0.25 h is 666 ± 198 ng/mL.

What about the concentration at 0.5 h [2, 6] of the same molecule?
Its concentration at 0.5 h is 6450 ng/mL.

And the concentration at 1 h [2, 6]?
Its concentration at 1 h is 4820 ng/mL.

And the concentration at 2 h [2, 6]?
Its concentration at 2 h is 3860 ng/mL.

And the concentration at 3 h [2, 6]?
The concentration at 3 h was 66.6 ± 42 ng/mL.

And the concentration at 4 h [2, 6]?
The concentration at 4 h was 88.2 ± 53.9 ng/mL.

What about the concentration at 5 h [2, 6] of the same molecule?
Its concentration at 5 h is 83.1 ± 23.2 ng/mL.

What about the concentration at 6 h [2, 6] of the same molecule?
The concentration at 6 h was 90.2 ± 28.1 ng/mL.

What about the “AUC intracolonic relative to intraduodenal” value ([2]; no enzyme present) of the same molecule?
Its value is 4.3 times.

What about the “AUC average ± standard deviation 0 to 6 hours” value [2, 5] of the same molecule?
Its value is 1,767.6 ± 1,282.3 ng · hr/ml.

What about the “AUC average ± standard deviation 0 to 6 hours” value [2, 6] of the same molecule?
The value was 5061.9 ± 1,656.0 ng · hr/ml.
